In patent publication US20120016019A1, “PHARMACEUTICAL COMPOSITION FOR TREATING OR PREVENTING CANCER” (priority 2010, published 2012):
Several values for one entry are separate records, joined by “and”; a condition that tells them apart may be missing. Identical values can stand only once. Entries after “also recorded” stand apart in the source; their conditions may differ. Like-named read-outs stand apart in the source and are kept apart here.

Experiments:
[1] = system: MDA-MB-231; test: Cell counts, MDA-MB-231; type: cell-based
Procedure: (§1) As a result, LC-50 curves were generated in the 1st week.
(§2) In the 2nd plate, 7 d of the 1st week (LC-50) is the same as 0 h of the 2nd week (recovery).
(§3) At 0 h of the 2nd week, medium was exchanged with untreated medium for the remainder of the experiment. The untreated controls were not measured in the 2nd week (recovery) due to overconfluence by the end of the 1st week. As a result, Recovery curves were generated in the 2nd week.

[2] = system: Saos-2; test: Cell counts, Saos-2; type: cell-based
Procedure: (§7) Cancer cell lines HCC 1419, MCF-7, MDA-MB-468, SKBR3, PC3, HT1299, Saos-2, C-6, AsPc, MDA-MB-231, RKO, HeLa and TT, and normal cell lines HME 50 HT, BJ and CCD-1074sk were tested for changes in metabolism (XTT assay) and cell death (cell counts).
(§8) Cells were harvested using Trypsin-EDTA at the designated time points. […] Two 48-well plates were used per cell line, and they were measured at 0 h, 12 h, 24 h, 48 h, 4 d and 7 d, respectively.
(§9) In the 1st plate, cells were treated with the composition according to the invention and medium was changed at 0 h and 3 d. […] As a result, LC-50 curves were generated in the 1st week.
At 0 h of the 2nd week, medium was exchanged with untreated medium for the remainder of the experiment. […] As a result, Recovery curves were generated in the 2nd week.

[3] = system: RKO; conditions: human, 220 nM
Procedure: (§4) Cells were plated into 48-well Corning CellBind™ plates at densities of 20,000 cells for normal cells and 10,000˜20,000 cells for cancer cells. 24 to 48 h after plating, cells were treated with the composition according to the invention at concentrations of 4.5e-2M. The first time point treated with the composition of the invention is 0 h. At 3 days after the first treatment with the composition of the invention, medium was changed and the composition of the invention at the same concentrations were added to the cultured cells.
(§5) Cells were harvested using Trypsin-EDTA at the designated time points. When total cells for each well were counted with a Beckman-Coulter Z1 Particle Characterization Unit, the vertical axis represents 1/20 of cell number in the Figures attached to the specification, while when counted with a Beckman-Coulter Vi-Cell, the vertical axis represents cell number in the Figures. Two 48-well plates were used per cell line, and they were measured at 0 h, 12 h, 24 h, 48 h, 4 d and 7 d, respectively.
(§6) The viability was determined by using the trypan blue staining in the well of cell counting.

[4] = system: SKBR3; conditions: human, 220 nM
Procedure: as §4, §5, §6

[5] = system: MDA-MB-231; conditions: human, 0 h, 220 nM
Procedure: as §4, §5, §6

[6] = system: HeLa; conditions: human, 0 h, 220 nM
Procedure: as §4, §5, §6

[7] = system: TT; test: Viability by trypan blue staining, TT; type: cell-based; conditions: for viability (%) calculated from the cell counts: single value
[8] = system: SKBR3; test: Cell counts, SKBR3; type: cell-based; conditions: for cell counts: single wells
Procedure: as §7, §8, §9

[9] = system: HeLa; test: Cell counts, HeLa; type: cell-based
Procedure: as §1, §2, §3

[10] = system: MDA-MB-468; test: Cell counts, MDA-MB-468; type: cell-based; conditions: for cell counts: single wells
Procedure: as §7, §8, §9

`CC(=O)O[C@H]1C(=O)[C@@]2(C)[C@H]([C@H](OC(=O)c3ccccc3)[C@]3(O)C[C@H](OC(=O)[C@H](O)[C@@H](NC(=O)c4ccccc4)c4ccccc4)C(C)=C1C3(C)C)[C@]1(OC(C)=O)CO[C@@H]1C[C@@H]2O` [Taxol] was tested, and the cell counts ([1]; 1st week (LC50), 0 h) was 47000 and 42000 and 53000, the “cell counts, Mean value” ([1]; 1st week (LC50), 0 h) was 47333 and the cell counts ([1]; 1st week (LC50), 24 h) was 32000 and 39000 and 22000. For the same molecule, the “cell counts, Mean value” ([1]; 1st week (LC50), 24 h) was 31000, the cell counts ([1]; 1st week (LC50), 48 h) was 13000 and 16000 and 23000 and the “cell counts, Mean value” ([1]; 1st week (LC50), 48 h) was 17333. The cell counts ([1]; 1st week (LC50), 4 d) was 19500 and 24000 and 26500, the “cell counts, Mean value” ([1]; 1st week (LC50), 4 d) was 23333 and the “cell counts, Mean value” ([1]; 1st week (LC50), 7 d) was 9667. For the same molecule, the “growth of the cell population” value ([1]; 2nd week (recovery)) was “begins to grow and shows the sign of recovering”, the cell counts ([1]; 2nd week (recovery), 0 h) was 12500 and 17500 and 22000 and the “cell counts, Mean value” ([1]; 2nd week (recovery), 0 h) was 17333. For the same molecule, the cell counts ([1]; 2nd week (recovery), 24 h) was 16000 and 32000 and 24000, the “cell counts, Mean value” ([1]; 2nd week (recovery), 24 h) was 24000 and the “cell counts, Mean value” ([1]; 2nd week (recovery), 48 h) was 24500. The “cell counts, Mean value” ([1]; 2nd week (recovery), 4 d) was 22167, the “cell counts, Mean value” ([1]; 2nd week (recovery), 7 d) was 32000 and the “process of cell death (microscopy)” value [2] was “cell membranes were ruptured by toxicity of Taxol, and then nuclei of cells changed into black”. For the same molecule, the cell counts ([2]; 1st week (LC50), 0 h) was 2143 and 2221 and 2135, the “cell counts, Mean value” ([2]; 1st week (LC50), 0 h) was 2166 and the cell counts ([2]; 1st week (LC50), 12 h) was 1756 and 1790 and 1705. For the same molecule, the “cell counts, Mean value” ([2]; 1st week (LC50), 12 h) was 1750, the cell counts ([2]; 1st week (LC50), 24 h) was 1529 and 1376 and 1452 and the “cell counts, Mean value” ([2]; 1st week (LC50), 24 h) was 1452. The cell counts ([2]; 1st week (LC50), 48 h) was 857 and 822 and 776, the “cell counts, Mean value” ([2]; 1st week (LC50), 48 h) was 818 and the “cell counts, Mean value” ([2]; 1st week (LC50), 4 d) was 420. The “cell counts, Mean value” ([2]; 2nd week (recovery), 0 h) was 609, the “cell counts, Mean value” ([2]; 2nd week (recovery), 24 h) was 183 and the cell counts ([2]; 2nd week (recovery), 48 h) was 312 and 249 and 165. The “cell counts, Mean value” ([2]; 2nd week (recovery), 48 h) was 242, the cell counts ([2]; 2nd week (recovery), 4 d) was 416 and 589 and 602 and the “cell counts, Mean value” ([2]; 2nd week (recovery), 4 d) was 536. The “cell counts, Mean value” ([2]; 2nd week (recovery), 7 d) was 635, the “viability (%), Mean value” ([3]; 0 h) was 40% and the “viability (%), Mean value” ([3]; 24 h) was 43%. The “viability (%), Mean value” ([4]; 24 h) was 70%, the “viability (%) calculated from the cell counts” value (“viability (%) calculated” below) ([4]; 48 h) was 0% and the “viability (%), Mean value” ([4]; 48 h) was 17%. The “viability (%) calculated” value ([4]; 4 d) was 0%, the “viability (%), Mean value” ([4]; 4 d) was 33% and the “viability (%), Mean value” ([4]; 7 d) was 50%. The “viability (%), Mean value” [5] was 44.2%, the “viability (%), Mean value” [6] was 75.4% and the “viability (%)” value ([7]; 1st week (LC50), 0 h) was 79.5% and 80.8% and 78.4%. For the same molecule, the “viability (%), Mean value” ([7]; 1st week (LC50), 0 h) was 79.6%, the “viability (%)” value ([7]; 1st week (LC50), 24 h) was 76.5% and 64.7% and 72.7% and the “viability (%), Mean value” ([7]; 1st week (LC50), 24 h) was 71.3%. For the same molecule, the “viability (%)” value ([7]; 1st week (LC50), 48 h) was 72.5% and 72% and 76.9%, the “viability (%), Mean value” ([7]; 1st week (LC50), 48 h) was 73.8% and the “viability (%)” value ([7]; 1st week (LC50), 4 d) was 70.1%. For the same molecule, the “viability (%), Mean value” ([7]; 1st week (LC50), 4 d) was 67.8%, the “viability (%)” value ([7]; 1st week (LC50), 7 d) was 75% and 37.5% and the “viability (%), Mean value” ([7]; 1st week (LC50), 7 d) was 59.7%. The “viability (%), Mean value” ([7]; 2nd week (recovery), 0 h, trypan blue, mean value) was 65%, the “viability (%) calculated” value ([7]; 2nd week (recovery), 0 h, trypan blue) was 70% and 75% and 50% and the “viability (%), Mean value” ([7]; 2nd week (recovery), 24 h, trypan blue, mean value) was 41.1%. The “viability (%), Mean value” ([7]; 2nd week (recovery), 48 h, trypan blue, mean value) was 35.1%, the “viability (%), Mean value” ([7]; 2nd week (recovery), 4 d, trypan blue, mean value) was 37.6% and the “viability (%), Mean value” ([7]; 2nd week (recovery), 7 d, trypan blue, mean value) was 33.5%. The “viability (%) calculated” value ([7]; 2nd week (recovery), 7 d, trypan blue) was 25% and 42.3%, the “cell counts, Mean value” ([8]; 1st week (LC50), 0 h) was 2667 and the cell counts ([8]; 1st week (LC50), 0 h) was 2000 and 4000. The “cell counts, Mean value” ([8]; 1st week (LC50), 24 h) was 9333, the cell counts ([8]; 1st week (LC50), 24 h) was 6000 and 11000 and the “cell counts, Mean value” ([8]; 1st week (LC50), 48 h) was 4000. The cell counts ([8]; 1st week (LC50), 48 h) was 4000, the “cell counts, Mean value” ([8]; 1st week (LC50), 4 d) was 1000 and the cell counts ([8]; 1st week (LC50), 4 d) was 1000. For the same molecule, the “cell counts, Mean value” ([8]; 1st week (LC50), 7 d) was 3000, the “cell counts, Mean value” ([8]; 2nd week (recovery), 0 h) was 70667 and the cell counts ([8]; 2nd week (recovery), 0 h) was 60000 and 80000 and 72000. The “cell counts, Mean value” ([8]; 2nd week (recovery), 24 h) was 49333, the cell counts ([8]; 2nd week (recovery), 24 h) was 32000 and 60000 and 56000 and the “cell counts, Mean value” ([8]; 2nd week (recovery), 48 h) was 44000. For the same molecule, the cell counts ([8]; 2nd week (recovery), 48 h) was 56000 and 36000 and 40000, the “cell counts, Mean value” ([8]; 2nd week (recovery), 4 d) was 17250 and the cell counts ([8]; 2nd week (recovery), 4 d) was 15000 and 12500 and 22000. The “cell counts, Mean value” ([8]; 2nd week (recovery), 7 d) was 10000, the cell counts ([8]; 2nd week (recovery), 7 d) was 10000 and 12000 and 8000 and the cell counts ([9]; 1st week (LC50), 0 h) was 158000 and 136000 and 184000. For the same molecule, the “cell counts, Mean value” ([9]; 1st week (LC50), 0 h) was 159333, the cell counts ([9]; 1st week (LC50), 24 h) was 158000 and 276000 and 219000 and the “cell counts, Mean value” ([9]; 1st week (LC50), 24 h) was 217667. For the same molecule, the cell counts ([9]; 1st week (LC50), 48 h) was 105000 and 70000 and 79000, the “cell counts, Mean value” ([9]; 1st week (LC50), 48 h) was 84667 and the cell counts ([9]; 1st week (LC50), 4 d) was 26000 and 39000 and 31000. The “cell counts, Mean value” ([9]; 1st week (LC50), 4 d) was 32000, the cell counts ([9]; 1st week (LC50), 7 d) was 36000 and 34000 and 32000 and the “cell counts, Mean value” ([9]; 1st week (LC50), 7 d) was 34000. The cell counts ([9]; 2nd week (recovery), 0 h) was 31000 and 34000 and 35000, the “cell counts, Mean value” ([9]; 2nd week (recovery), 0 h) was 33333 and the “cell counts, Mean value” ([9]; 2nd week (recovery), 24 h) was 23333. The cell counts ([9]; 2nd week (recovery), 48 h) was 12000 and 23500 and 22000, the “cell counts, Mean value” ([9]; 2nd week (recovery), 48 h) was 19167 and the cell counts ([9]; 2nd week (recovery), 4 d) was 22000 and 18000 and 13000. The “cell counts, Mean value” ([9]; 2nd week (recovery), 4 d) was 17667, the cell counts ([9]; 2nd week (recovery), 7 d) was 18000 and the “cell counts, Mean value” ([9]; 2nd week (recovery), 7 d) was 18000. For the same molecule, the “cell counts (trend)” value [10] was “increasing; also recorded: again recovering”, the “cell counts, Mean value” ([10]; 1st week (LC50), 0 h) was 36000 and the cell counts ([10]; 1st week (LC50), 0 h) was 32000 and 40000. For the same molecule, the “cell counts, Mean value” ([10]; 1st week (LC50), 24 h) was 23333, the cell counts ([10]; 1st week (LC50), 24 h) was 24000 and 30000 and 16000 and the “cell counts, Mean value” ([10]; 1st week (LC50), 48 h) was 13000. For the same molecule, the cell counts ([10]; 1st week (LC50), 48 h) was 10000 and 12000 and 17000, the “cell counts, Mean value” ([10]; 1st week (LC50), 4 d) was 17667 and the cell counts ([10]; 1st week (LC50), 4 d) was 15000 and 18000 and 20000. The “cell counts, Mean value” ([10]; 1st week (LC50), 7 d) was 9000, the “cell counts, Mean value” ([10]; 2nd week (recovery), 0 h) was 8333 and the “cell counts, Mean value” ([10]; 2nd week (recovery), 24 h) was 3667. The cell counts ([10]; 2nd week (recovery), 24 h) was 4000 and 3000, the “cell counts, Mean value” ([10]; 2nd week (recovery), 48 h) was 8333 and the “cell counts, Mean value” ([10]; 2nd week (recovery), 4 d) was 9333. For the same molecule, the cell counts ([10]; 2nd week (recovery), 4 d) was 9000 and 10000, the “cell counts, Mean value” ([10]; 2nd week (recovery), 7 d) was 11667 and the cell counts ([10]; 2nd week (recovery), 7 d) was 9000 and 11000 and 15000.
